Reference: US20120022121A1, “INDOLES, DERIVATIVES AND ANALOGS THEREOF AND USES THEREFOR” (priority 2007, published 2012)

Tests used:
K562 = assay: Cell viability MTT assay, 96 h; assay type: cell-based; details: Homo sapiens
Protocol: (§1) Cells were seeded in 96-well plates and incubated with different concentrations of compound 13, 68 or other anticancer drugs for 96 h. Cell viability was quantitated by MTT assay. […] Table 4 is a comparison of the IC50 of compounds 13, 68 and other anticancer drugs in the K562 and doxorubicin-resistant K562/DOX cell lines.

K562/Dox = assay: Cell viability MTT assay, 96 h; assay type: cell-based; details: Homo sapiens, doxorubicin-resistant
Protocol: as §1

IC50 (K562): 0.0271 ± 0.0055 µM
IC50 (K562/Dox): 0.859 ± 0.0268 µM
Structure (SMILES): COc1cccc2c1C(=O)c1c(O)c3c(c(O)c1C2=O)C[C@@](O)(C(=O)CO)C[C@@H]3O[C@H]1C[C@H](N)[C@H](O)[C@H](C)O1 [Doxirubicin]
